Results reported in patent US20220265694A1, “COMPOSITIONS AND METHODS FOR TREATING AN INFECTION” (CMPD LICENSING, LLC, priority 2016, published 2022).

What was measured:
[1] = system: Bacteroides fragilis; test: Expected efficacy of antibiotic agents; conditions: expected efficacy against Bacteroides fragilis; Gram: anaer
[2] = system: Clostridium difficile; test: Expected efficacy of antibiotic agents; conditions: expected efficacy against Clostridium difficile; Gram: anaer
[3] = system: Chlamydia pneumoniae; test: Expected efficacy of antibiotic agents; conditions: expected efficacy against Chlamydia pneumoniae; Gram: n/a
[4] = system: Chlamydia psittaci; conditions: expected efficacy against Chlamydia psittaci; Gram: n/a
[5] = system: Chlamydia trachomatis; test: Expected efficacy of antibiotic agents; conditions: expected efficacy against Chlamydia trachomatis; Gram: n/a
[6] = system: Mycoplasma pneumoniae; test: Expected efficacy of antibiotic agents; conditions: expected efficacy against Mycoplasma pneumoniae; Gram: n/a
[7] = system: Bordetella pertussis; test: Expected efficacy of antibiotic agents; conditions: expected efficacy against Bordetella pertussis; Gram: neg
[8] = system: Brucella species; conditions: expected efficacy against Brucella species; Gram: neg
[9] = system: Enterobacter aerogenes; test: Expected efficacy of antibiotic agents; conditions: expected efficacy against Enterobacter aerogenes; Gram: neg
[10] = system: Enterobacter cloacae; test: Expected efficacy of antibiotic agents; conditions: expected efficacy against Enterobacter cloacae; Gram: neg
[11] = system: Enterobacter sakazakii; test: Expected efficacy of antibiotic agents; conditions: expected efficacy against Enterobacter sakazakii; Gram: neg
[12] = system: Escherichia coli; test: Expected efficacy of antibiotic agents; conditions: expected efficacy against Escherichia coli; Gram: neg
[13] = system: Haemophilus parainfluenzae; test: Expected efficacy of antibiotic agents; conditions: expected efficacy against Haemophilus parainfluenzae; Gram: neg
[14] = system: Klebsiella (Calymmatobacterium); test: Expected efficacy of antibiotic agents; conditions: expected efficacy against Klebsiella (Calymmatobacterium); Gram: neg
[15] = system: Klebsiella oxytoca; test: Expected efficacy of antibiotic agents; conditions: expected efficacy against Klebsiella oxytoca; Gram: neg
[16] = system: Klebsiella pneumoniae; test: Expected efficacy of antibiotic agents; conditions: expected efficacy against Klebsiella pneumoniae; Gram: neg
[17] = system: Legionella pneumophila; conditions: expected efficacy against Legionella pneumophila; Gram: neg
[18] = system: Moraxella catarrhalis; test: Expected efficacy of antibiotic agents; conditions: expected efficacy against Moraxella catarrhalis; Gram: neg
[19] = system: Neisseria gonorrhoeae; test: Expected efficacy of antibiotic agents; conditions: expected efficacy against Neisseria gonorrhoeae; Gram: neg
[20] = system: Neisseria meningitidis; test: Expected efficacy of antibiotic agents; conditions: expected efficacy against Neisseria meningitidis; Gram: neg
[21] = system: Proteus mirabilis; test: Expected efficacy of antibiotic agents; conditions: expected efficacy against Proteus mirabilis; Gram: neg
[22] = system: Proteus vulgaris; test: Expected efficacy of antibiotic agents; conditions: expected efficacy against Proteus vulgaris; Gram: neg
[23] = system: Providencia rettgeri; test: Expected efficacy of antibiotic agents; conditions: expected efficacy against Providencia rettgeri; Gram: neg
[24] = system: Providencia stuartii; test: Expected efficacy of antibiotic agents; conditions: expected efficacy against Providencia stuartii; Gram: neg
[25] = system: Pseudomonas aeruginosa; test: Expected efficacy of antibiotic agents; conditions: expected efficacy against Pseudomonas aeruginosa; Gram: neg
[26] = system: Pseudomonas fluorescens; test: Expected efficacy of antibiotic agents; conditions: expected efficacy against Pseudomonas fluorescens; Gram: neg
[27] = system: Serratia marcescens; test: Expected efficacy of antibiotic agents; conditions: expected efficacy against Serratia marcescens; Gram: neg
[28] = system: Vibrio cholerae; test: Expected efficacy of antibiotic agents; conditions: expected efficacy against Vibrio cholerae; Gram: neg
[29] = system: Corynebacterium jeikeium; test: Expected efficacy of antibiotic agents; conditions: expected efficacy against Corynebacterium jeikeium; Gram: pos
[30] = system: Corynebacterium urealyticum; test: Expected efficacy of antibiotic agents; conditions: expected efficacy against Corynebacterium urealyticum; Gram: pos
[31] = system: Diphtheroids; test: Expected efficacy of antibiotic agents; conditions: expected efficacy against Diphtheroids; Gram: pos
[32] = system: Enterococcus faecalis; test: Expected efficacy of antibiotic agents; conditions: expected efficacy against Enterococcus faecalis; Gram: pos
[33] = system: Enterococcus faecium; test: Expected efficacy of antibiotic agents; conditions: expected efficacy against Enterococcus faecium; Gram: pos
[34] = system: Methicillin resistant staph aureus (MRSA); test: Expected efficacy of antibiotic agents; conditions: expected efficacy against Methicillin resistant staph aureus (MRSA); Gram: pos
[35] = system: Peptostreptococcus; test: Expected efficacy of antibiotic agents; conditions: expected efficacy against Peptostreptococcus; Gram: pos
[36] = system: Staphylococcus aureus (MSSA); test: Expected efficacy of antibiotic agents; conditions: expected efficacy against Staphylococcus aureus (MSSA); Gram: pos
[37] = system: Staphylococcus epidermidis; test: Expected efficacy of antibiotic agents; conditions: expected efficacy against Staphylococcus epidermidis; Gram: pos
[38] = system: Streptococcus agalactiae; test: Expected efficacy of antibiotic agents; conditions: expected efficacy against Streptococcus agalactiae; Gram: pos
[39] = system: Streptococcus pneumoniae; test: Expected efficacy of antibiotic agents; conditions: expected efficacy against Streptococcus pneumoniae; Gram: pos
[40] = system: Streptococcus pyogenes; test: Expected efficacy of antibiotic agents; conditions: expected efficacy against Streptococcus pyogenes; Gram: pos
[41] = system: Viridans group streptococci; test: Expected efficacy of antibiotic agents; conditions: expected efficacy against Viridans group streptococci; Gram: pos
[42] = system: Aspergillus flavus; test: Expected efficacy of antifungal agents; conditions: expected efficacy against Aspergillus flavus
[43] = system: Aspergillus fumigatus; test: Expected efficacy of antifungal agents; conditions: expected efficacy against Aspergillus fumigatus
[44] = system: Aspergillus niger; test: Expected efficacy of antifungal agents; conditions: expected efficacy against Aspergillus niger
[45] = system: Aspergillus terreus; test: Expected efficacy of antifungal agents; conditions: expected efficacy against Aspergillus terreus
[46] = system: Candida species; test: Expected efficacy of antifungal agents; conditions: expected efficacy against Candida species
[47] = system: Fusarium species; test: Expected efficacy of antifungal agents; conditions: expected efficacy against Fusarium species
[48] = system: Scedosporium apiospermum; test: Expected efficacy of antifungal agents; conditions: expected efficacy against Scedosporium apiospermum
[49] = system: Blastomyces dermatitidis; test: Expected efficacy of antifungal agents; conditions: expected efficacy against Blastomyces dermatitidis
[50] = system: Coccidioides immitis; conditions: expected efficacy against Coccidioides immitis
[51] = system: Cryptococcus neoformans; test: Expected efficacy of antifungal agents; conditions: expected efficacy against Cryptococcus neoformans
[52] = system: Histoplasma capsulatum; conditions: expected efficacy against Histoplasma capsulatum
[53] = system: Leishmania donovani; test: Expected efficacy of antifungal agents; conditions: expected efficacy against Leishmania donovani
[54] = system: Leishmania infantum; test: Expected efficacy of antifungal agents; conditions: expected efficacy against Leishmania infantum
[55] = system: Paracoccidioides brasiliensis; test: Expected efficacy of antifungal agents; conditions: expected efficacy against Paracoccidioides brasiliensis
[56] = system: Clostridium perfringens; conditions: expected efficacy against Clostridium perfringens; Gram: anaer
[57] = system: Acinetobacter baumannii; test: Expected efficacy of antibiotic agents; conditions: expected efficacy against Acinetobacter baumannii; Gram: neg
[58] = system: Acinetobacter calcoaceticus; test: Expected efficacy of antibiotic agents; conditions: expected efficacy against Acinetobacter calcoaceticus; Gram: neg
[59] = system: Acinetobacter lwoffii; test: Expected efficacy of antibiotic agents; conditions: expected efficacy against Acinetobacter lwoffii; Gram: neg
[60] = system: Campylobacter jejuni; test: Expected efficacy of antibiotic agents; conditions: expected efficacy against Campylobacter jejuni; Gram: neg
[61] = system: Citrobacter diversus; test: Expected efficacy of antibiotic agents; conditions: expected efficacy against Citrobacter diversus; Gram: neg
[62] = system: Citrobacter freundii; test: Expected efficacy of antibiotic agents; conditions: expected efficacy against Citrobacter freundii; Gram: neg
[63] = system: Haemophilus ducreyi; test: Expected efficacy of antibiotic agents; conditions: expected efficacy against Haemophilus ducreyi; Gram: neg
[64] = system: Haemophilus influenzae; test: Expected efficacy of antibiotic agents; conditions: expected efficacy against Haemophilus influenzae; Gram: neg
[65] = system: Shigella boydii; test: Expected efficacy of antibiotic agents; conditions: expected efficacy against Shigella boydii; Gram: neg
[66] = system: Shigella dysenteriae; test: Expected efficacy of antibiotic agents; conditions: expected efficacy against Shigella dysenteriae; Gram: neg
[67] = system: Shigella flexneri; test: Expected efficacy of antibiotic agents; conditions: expected efficacy against Shigella flexneri; Gram: neg
[68] = system: Shigella sonnei; test: Expected efficacy of antibiotic agents; conditions: expected efficacy against Shigella sonnei; Gram: neg
[69] = system: Yersinia pestis; conditions: expected efficacy against Yersinia pestis; Gram: neg

In the case of Colistimethate, the Efficacy [1] is reported as “no”, the Efficacy [2] is reported as “no” and the Efficacy [3] is reported as “no”. For the same compound, the Efficacy [4] was “no”, the Efficacy [5] was “no” and the Efficacy [6] was “no”. The Efficacy [7] was “no”, the Efficacy [8] was “no” and the Efficacy [9] was “yes”. For the same compound, the Efficacy [10] was “yes”, the Efficacy [11] was “yes” and the Efficacy [12] was “yes”. For the same compound, the Efficacy [13] was “no”, the Efficacy [14] was “yes” and the Efficacy [15] was “yes”. The Efficacy [16] was “yes”, the Efficacy [17] was “no” and the Efficacy [18] was “no”. For the same compound, the Efficacy [19] was “no”, the Efficacy [20] was “no” and the Efficacy [21] was “no”. For the same compound, the Efficacy [22] was “no”, the Efficacy [23] was “no” and the Efficacy [24] was “no”. The Efficacy [25] was “yes”, the Efficacy [26] was “yes” and the Efficacy [27] was “no”. The Efficacy [28] was “no”, the Efficacy [29] was “no” and the Efficacy [30] was “no”. The Efficacy [31] was “no”, the Efficacy [32] was “no” and the Efficacy [33] was “no”. For the same compound, the Efficacy [34] was “no”, the Efficacy [35] was “no” and the Efficacy [36] was “no”. The Efficacy [37] was “no”, the Efficacy [38] was “no” and the Efficacy [39] was “no”. For the same compound, the Efficacy [40] was “no” and the Efficacy [41] was “no”.
For C[C@@H](c1ncncc1F)[C@](O)(Cn1cncn1)c1ccc(F)cc1F [Voriconazole], the Efficacy [42] was “yes”, the Efficacy [43] was “yes” and the Efficacy [44] was “yes”. The Efficacy [45] was “yes”, the Efficacy [46] was “yes” and the Efficacy [47] was “yes”. The Efficacy [48] was “yes”.
In the case of OC(Cn1cncn1)(Cn1cncn1)c1ccc(F)cc1F [Fluconazole], the Efficacy [42] is reported as “yes”, the Efficacy [43] is reported as “yes” and the Efficacy [49] is reported as “yes”. The Efficacy [46] was “yes”, the Efficacy [50] was “yes” and the Efficacy [51] was “yes”. For the same compound, the Efficacy [52] was “yes”.
For C[C@@H]1[C@H](O)[C@@H](C)/C=C/C=C/C=C/C=C/C=C/C=C/C=C/[C@H](O[C@@H]2O[C@H](C)[C@@H](O)[C@H](N)[C@@H]2O)C[C@@H]2O[C@](O)(C[C@@H](O)C[C@@H](O)[C@H](O)CC[C@@H](O)C[C@@H](O)CC(=O)O[C@H]1C)C[C@H](O)[C@H]2C(=O)O [Amphotericin], the Efficacy [42] was “yes”, the Efficacy [43] was “yes” and the Efficacy [44] was “yes”. The Efficacy [45] was “yes”, the Efficacy [49] was “yes” and the Efficacy [46] was “yes”. For the same compound, the Efficacy [50] was “yes”, the Efficacy [51] was “yes” and the Efficacy [52] was “yes”. The Efficacy [53] was “yes”, the Efficacy [54] was “yes” and the Efficacy [55] was “yes”.
For NC[C@H]1O[C@H](O[C@H]2[C@H](O)[C@@H](O[C@H]3O[C@H](CO)[C@@H](O)[C@H](N)[C@H]3O)[C@H](N)C[C@@H]2N)[C@H](N)C[C@@H]1O [Tobramycin], the Efficacy [1] was “no”, the Efficacy [2] was “no” and the Efficacy [56] was “no”. The Efficacy [3] was “no”, the Efficacy [4] was “no” and the Efficacy [5] was “no”. For the same compound, the Efficacy [6] was “no”, the Efficacy [57] was “no” and the Efficacy [58] was “no”. For the same compound, the Efficacy [59] was “no”, the Efficacy [7] was “no” and the Efficacy [60] was “yes”. For the same compound, the Efficacy [61] was “yes”, the Efficacy [62] was “yes” and the Efficacy [9] was “yes”. The Efficacy [10] was “yes”, the Efficacy [11] was “yes” and the Efficacy [12] was “yes”. The Efficacy [63] was “yes”, the Efficacy [64] was “yes” and the Efficacy [14] was “yes”. The Efficacy [15] was “yes”, the Efficacy [16] was “yes” and the Efficacy [17] was “no”. The Efficacy [18] was “yes”, the Efficacy [19] was “no” and the Efficacy [20] was “no”. The Efficacy [21] was “yes”, the Efficacy [22] was “yes” and the Efficacy [25] was “yes”. For the same compound, the Efficacy [26] was “yes”, the Efficacy [27] was “yes” and the Efficacy [65] was “yes”. The Efficacy [66] was “yes”, the Efficacy [67] was “yes” and the Efficacy [68] was “yes”. For the same compound, the Efficacy [28] was “no”, the Efficacy [69] was “yes” and the Efficacy [29] was “no”. For the same compound, the Efficacy [30] was “no”, the Efficacy [32] was “no” and the Efficacy [33] was “no”. The Efficacy [34] was “no”, the Efficacy [35] was “no” and the Efficacy [36] was “no”. For the same compound, the Efficacy [37] was “no”, the Efficacy [38] was “no” and the Efficacy [39] was “no”. The Efficacy [40] was “no” and the Efficacy [41] was “no”.
